For two compounds, Fold expansion results are on record in paper PMC7719179, “Small molecule inhibition of Dynamin-dependent endocytosis targets multiple niche signals and impairs leukemia stem cells” (Nature Communications, 2020).

The test system of the assay is Ba/F3-IL7R^Stat5-CA cells. As to the kind of experiment: pStat5 and proliferation of Ba/F3-IL7R^Stat5-CA cells with IL-7 or doxycycline. The settings on record: relative to data from day 0, reported as 1, groups +IL-7 -DOX or -IL-7 +DOX. In kind it is cell-based, murine. The procedure:
Ba/F3 cells (kindly provided by a person from The Walter and Eliza Hall Institute of Medical Research) were infected with pMIG-R1/Il7r retroviral supernatants produced in 293T cells, and transduced cells were sorted with a BD Influx (BD Australia) and selected by culture in medium supplemented with 5 ng/mL rmIL-7 (#217-17, Pepro Tech, Rocky Hill NJ, USA) for 7 days. Ba/F3 cells stably expressing Il7r (Ba/F3-IL7R) were infected with TxTCPVIR-Stat5-CA retroviral supernatants produced in 293T. Cell sorting was performed with a BD Influx and transduced cells were treated with doxycycline for 48 h to induce the expression of the Stat5-CA-T2A-mCherry fusion protein. […]
(red) assessed by flow cytometry (top) and Western blots (bottom). MFI ± SD of n=2 technical replicates, performed in 2 independent experiments (***P<0.001 compared to unstimulated cells ; white bar). For Western blots, Actin was used as a loading control. f, Proliferation of BaF3-IL7R Stat5-CA cells in absence (+IL-7 –DOX; grey) or presence (-IL-7 +DOX; red) of doxycycline. Fold expansion was calculated from the number of cells initially put into culture at day 0. […]

Values joined by “and” are separate entries in the source; they are usually repeats but may differ in a detail not shown here. Identical values can stand only once.

Regarding `C[C@H]1c2cccc(O)c2C(=O)C2=C(O)[C@]3(O)C(=O)C(C(N)=O)=C(O)[C@@H](N(C)C)[C@@H]3[C@@H](O)[C@@H]21` [DOX], the Fold expansion runs as follows: (24 h) 0.89 and 0.85 and 0.86 and 0.90 and 0.74 and 0.77; (48 h) 1.39 and 1.43 and 1.24 and 1.40 and 1.29 and 1.28; (72 h) 2.22 and 2.26 and 3.46 and 3.54 and 3.68 and 3.14; (96 h) 3.24 and 3.39 and 3.99 and 3.41 and 3.51 and 3.96; (120 h) 10.84 and 12.62 and 8.80 and 9.76 and 7.34 and 8.20.
IL-7: the Fold expansion runs as follows: (24 h) 0.74 and 0.75 and 0.79 and 0.97 and 0.91 and 0.98; (72 h) 2.37 and 2.58 and 4.20 and 3.96 and 3.95 and 3.51; (120 h) 9.32 and 11.24 and 15.76 and 15.48 and 14.68 and 15.08.
